Source: US20090124607A1, “Novel Bicyclic Sulfonamides for Use as Glucocorticoid Receptor Modulators in the Treatment of Inflammatory Diseases” (priority 2005, published 2009)

Biological target: T1, recombinant human GR (Homo sapiens, UniProt P04150)
T1 construct: purchased Panvera/Invitrogen P2812 (kit P2893)
T1 sequence (P04150 1-777): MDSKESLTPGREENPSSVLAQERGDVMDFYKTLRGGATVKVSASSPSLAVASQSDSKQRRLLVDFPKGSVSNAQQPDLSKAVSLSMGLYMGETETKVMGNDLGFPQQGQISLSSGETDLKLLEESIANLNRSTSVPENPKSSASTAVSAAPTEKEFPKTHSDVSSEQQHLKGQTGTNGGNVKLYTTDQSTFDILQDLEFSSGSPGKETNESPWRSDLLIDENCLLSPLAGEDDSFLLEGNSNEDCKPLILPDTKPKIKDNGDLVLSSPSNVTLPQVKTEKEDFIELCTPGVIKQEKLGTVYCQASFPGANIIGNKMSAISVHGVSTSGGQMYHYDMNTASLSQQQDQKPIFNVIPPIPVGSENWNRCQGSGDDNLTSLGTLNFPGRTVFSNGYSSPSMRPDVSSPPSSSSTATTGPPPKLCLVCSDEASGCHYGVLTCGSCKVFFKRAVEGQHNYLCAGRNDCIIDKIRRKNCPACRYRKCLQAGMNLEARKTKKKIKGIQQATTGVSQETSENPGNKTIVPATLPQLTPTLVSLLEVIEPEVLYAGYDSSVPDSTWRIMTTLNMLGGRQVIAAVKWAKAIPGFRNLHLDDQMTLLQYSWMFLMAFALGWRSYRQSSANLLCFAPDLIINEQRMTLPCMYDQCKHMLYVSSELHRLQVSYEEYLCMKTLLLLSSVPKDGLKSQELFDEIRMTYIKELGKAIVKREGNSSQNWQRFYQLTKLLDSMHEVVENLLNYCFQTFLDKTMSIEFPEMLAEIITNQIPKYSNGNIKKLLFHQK
Assay: Human Glucocorticoid Receptor (GR) Assay, fluorescence polarization (GRhuFL_FP_v2, GR-binders)
Type: binding
Experimental: Human Glucocorticoid Receptor (GR) Assay
The assay is based on a commercial kit from Panvera/Invitrogen (Part number P2893). The assay technology is fluorescence polarization. […] The GR and Stabilizing Peptide reagents are stored at −70° C. while the GS Red is stored at −20° C. Also included in the kit are 1M DTT (Panvera, Part number P2325, stored at −20° C.) and GR Screening buffer 10× (Panvera, Part number P2814, stored at −70° C. initially but once thawed stored at room temperature). Avoid repeated freeze/thaws for all reagents. The GR Screening buffer 10× comprises 100 mM potassium phosphate, 200 mM sodium molybdate, 1 mM EDTA and 20% DMSO.
0% control was 100% DMSO and 100% control was 10 μM Dexamethasone. Background solution (8 μL; assay buffer 10×, Stabilizing Peptide, DTT and ice cold MQ water) was added to the background wells. GS Red solution (7 μL; assay buffer 10×, Stabilizing Peptide, DTT, GS Red and ice cold water) was added to all wells except background wells. GR solution (7 μL; assay buffer 10×, Stabilizing Peptide, DTT, GR and ice cold water) was added to all wells. The plate was sealed and incubated in a dark at room temperature for 2 hours.

| IC50 [µM] | SMILES |
| --- | --- |
| 0.79 | Cc1cc(C)c(S(=O)(=O)NC(C)CS(=O)(=O)c2cccc3c2cnn3-c2ccc(F)cc2)c(C)c1 (stereo not shown) [Example 37, N-[2-[1-(4-Fluorophenyl)indazol-4-yl]sulfonyl-1-methyl-ethyl]-2,4,6-trimethyl-benzenesulfonamide] |
| 0.0042 | Cc1cc(C)c(S(=O)(=O)N[C@@H](C)CNc2c(F)ccc3c2cnn3-c2ccc(F)cc2)c(C)c1 [Example 32, N-((1S)-2-{[5-Fluoro-1-(4-fluorophenyl)-1H-indazol-4-yl]amino}-1-methylethyl)-2,4,6-trimethylbenzenesulfonamide] |
| 0.0044 | COCc1cccc(-n2ncc3c(NC[C@H](C)NS(=O)(=O)c4c(C)cc(C)cc4C)cccc32)c1 [Example 20, N-[(1S)-2-({1-[3-(Methoxymethyl)phenyl]-1H-indazol-4-yl}amino)-1-methylethyl]-2,4,6-trimethylbenzenesulfonamide] |
| 0.02 | Cc1ccc(-n2ncc3c(NC[C@H](C)NS(=O)(=O)c4ccccc4)cccc32)cc1 [Example 51] |
